For series [1], the target named is T1, P2X purinoceptor 7 (Homo sapiens, UniProt Q99572).
T1 sequence (Q99572 whole entry): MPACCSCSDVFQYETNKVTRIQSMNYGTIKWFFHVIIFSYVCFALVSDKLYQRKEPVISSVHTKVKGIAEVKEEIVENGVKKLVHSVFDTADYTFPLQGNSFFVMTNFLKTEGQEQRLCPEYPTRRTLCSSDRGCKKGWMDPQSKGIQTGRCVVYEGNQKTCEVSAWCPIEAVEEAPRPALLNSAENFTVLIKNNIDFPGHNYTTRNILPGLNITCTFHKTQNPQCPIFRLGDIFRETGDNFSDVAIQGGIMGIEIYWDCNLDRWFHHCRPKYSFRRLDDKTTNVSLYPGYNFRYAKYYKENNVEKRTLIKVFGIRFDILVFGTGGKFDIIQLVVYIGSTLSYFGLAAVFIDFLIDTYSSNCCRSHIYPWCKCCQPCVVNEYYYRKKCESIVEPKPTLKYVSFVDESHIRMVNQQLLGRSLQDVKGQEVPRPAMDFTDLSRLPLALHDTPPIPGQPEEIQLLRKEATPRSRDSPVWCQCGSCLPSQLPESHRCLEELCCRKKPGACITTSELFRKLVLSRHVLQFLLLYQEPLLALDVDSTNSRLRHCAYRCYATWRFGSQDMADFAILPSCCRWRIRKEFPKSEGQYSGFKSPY
Briefly: Antagonist activity at P2X7 receptor in human THP-1 cells assessed as reduction in ATP induced IL-1 beta release. It is filed as cell-based.

The target in series [2] is T2, P2X purinoceptor 7 (Mus musculus) (UniProt Q9Z1M0).
T2 sequence (whole entry): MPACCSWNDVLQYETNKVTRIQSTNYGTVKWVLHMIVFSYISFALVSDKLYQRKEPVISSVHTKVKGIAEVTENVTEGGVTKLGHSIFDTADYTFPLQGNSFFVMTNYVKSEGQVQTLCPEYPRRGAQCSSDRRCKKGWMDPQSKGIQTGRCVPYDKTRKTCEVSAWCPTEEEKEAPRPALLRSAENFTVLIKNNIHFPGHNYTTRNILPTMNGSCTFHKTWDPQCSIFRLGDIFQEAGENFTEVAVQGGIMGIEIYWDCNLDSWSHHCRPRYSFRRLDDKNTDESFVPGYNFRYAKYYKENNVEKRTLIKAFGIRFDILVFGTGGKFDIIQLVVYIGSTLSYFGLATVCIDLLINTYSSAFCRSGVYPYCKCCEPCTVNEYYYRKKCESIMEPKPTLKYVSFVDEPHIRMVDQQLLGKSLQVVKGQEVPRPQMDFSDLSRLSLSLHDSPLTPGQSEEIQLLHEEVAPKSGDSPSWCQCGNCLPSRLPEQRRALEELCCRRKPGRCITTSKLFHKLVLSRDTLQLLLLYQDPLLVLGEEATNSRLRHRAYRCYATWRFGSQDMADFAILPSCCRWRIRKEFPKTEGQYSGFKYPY
Briefly: Antagonist activity at P2X7 receptor in mouse Peritoneal macrophage cells assessed as ATP induced dye uptake at 10 uM relative to control. It counts as cell-based. The settings on record: filed as antagonist.

Series [3] addresses T3, P2X purinoceptor 7 (Mus musculus, UniProt Q9Z1M0).
T3 sequence (Q9Z1M0 whole entry): T2 sequence (whole entry)
Briefly: Antagonist activity at P2X7 receptor in mouse Peritoneal macrophage cells assessed as reduction in ATP induced IL-1 beta release. It counts as cell-based.

A short description of series [4]: AUC(0 to 6 hrs) in Han Wistar rat plasma at 1 mg/kg, iv measured upto 6 hrs by liquid chromatography tandem mass spectrometry. It counts as ADME, organism-based. Further details: time < 6 hrs, dose 1 mg/kg, route iv.
Series [5] can be described thus: Half life in Han Wistar rat plasma at 1 mg/kg, iv measured upto 6 hrs by liquid chromatography tandem mass spectrometry. It counts as ADME, organism-based.
Series [6] in a line: Half life in Han Wistar rat Brain at 1 mg/kg, iv measured upto 6 hrs by liquid chromatography tandem mass spectrometry. It is filed as ADME, organism-based.
The nature of series [7]: AUC(0 to 6 hrs) in Han Wistar rat Brain at 1 mg/kg, iv measured upto 6 hrs by liquid chromatography tandem mass spectrometry. It counts as ADME, organism-based. Further details: time < 6 hrs, dose 1 mg/kg, route iv.
The target of series [8] is T1, P2X purinoceptor 7. The experiment in a line: Inhibition of P2X7 in human THP-1cells assessed as reduction in YO-PRO-1 iodide dye uptake measured after 24 hrs by fluorescence based assay. It is filed as cell-based.
Series [9] concerns the target T1, P2X purinoceptor 7. The experiment in a line: Inhibition of P2X7 (unknown origin) assessed as reduction in IL-1 beta release.
For series [10], the target named is T3, P2X purinoceptor 7. Briefly: Inhibition of mouse P2X7 receptor expressed in xenopus laevis Oocyte cells by TEVC analysis. It counts as cell-based.
In series [11] the target is T4, P2X purinoceptor 7 (Rattus norvegicus, UniProt Q64663).
T4 sequence (Q64663 whole entry): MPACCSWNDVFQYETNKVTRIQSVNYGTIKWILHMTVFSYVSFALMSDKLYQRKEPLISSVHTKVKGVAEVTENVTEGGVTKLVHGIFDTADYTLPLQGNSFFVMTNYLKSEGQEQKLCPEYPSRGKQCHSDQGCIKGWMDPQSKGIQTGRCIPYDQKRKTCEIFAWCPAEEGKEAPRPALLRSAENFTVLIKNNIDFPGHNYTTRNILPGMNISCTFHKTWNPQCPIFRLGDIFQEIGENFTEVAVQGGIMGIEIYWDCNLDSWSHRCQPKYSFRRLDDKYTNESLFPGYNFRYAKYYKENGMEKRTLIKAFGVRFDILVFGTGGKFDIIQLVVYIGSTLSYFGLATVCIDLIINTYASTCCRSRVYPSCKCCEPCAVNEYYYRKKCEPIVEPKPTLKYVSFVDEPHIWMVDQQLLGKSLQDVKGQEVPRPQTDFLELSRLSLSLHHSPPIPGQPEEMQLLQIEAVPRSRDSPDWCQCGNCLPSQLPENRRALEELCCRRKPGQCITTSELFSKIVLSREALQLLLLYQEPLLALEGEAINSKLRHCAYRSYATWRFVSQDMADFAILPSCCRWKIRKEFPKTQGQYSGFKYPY
The experiment in a line: Inhibition of rat P2X7 receptor transfected in HEK293 cells by calcium influx assay. It is filed as cell-based.

For series [12], the target named is T1, P2X purinoceptor 7. Briefly: Inhibition of human P2X7 receptor transfected in HEK293 cells by calcium influx assay. It is filed as cell-based.
For series [13], the target named is T1, P2X purinoceptor 7. The experiment in a line: Antagonist activity at recombinant human P2X7 receptor expressed in 1321N1 cells measured after 30 mins by fluorescence based calcium flux assay. It is filed as cell-based. (A change in cytosolic calcium serves as a functional read-out for many receptors and channels.)
For series [14], the target named is T1, P2X purinoceptor 7. The experiment in a line: Inhibition of human P2X7 receptor in HEK cells by fluorescence based calcium influx assay. It counts as cell-based.
The target of series [15] is T1, P2X purinoceptor 7. Briefly: Antagonist activity at P2X7 in human THP-1 cells. It counts as cell-based.
Series [16] can be described thus: Half life in human liver microsomes. It counts as ADME, Microsome. (In general: Microsomes from liver hold many membrane-bound enzymes, among them those of drug oxidation.)
A further series relates to Mus musculus. The experiment in a line: Antiinflammatory activity in ATP induced mouse paw edema model. It is filed as functional. As to conditions: read-out: ID50 (the source's name).
Series [17] concerns the target T1, P2X purinoceptor 7. The experiment in a line: Inhibition of human P2X7 receptor expressed in HEK293 cells incubated for 5 mins followed by Bz-ATP addition measured after 3 mins by fluorescence based assay. It counts as cell-based.
Series [18] deals with T3, P2X purinoceptor 7. Briefly: Inhibition of mouse P2X7 receptor expressed in HEK293 cells incubated for 5 mins followed by Bz-ATP addition measured after 3 mins by fluorescence based assay. It counts as cell-based.
For series [19], the target named is T1, P2X purinoceptor 7. The experiment in a line: Antagonist activity at human P2X7 receptor expressed in 1321N1 cells by FLIPR assay. It is filed as cell-based.

Usually IC50 stands for the concentration needed to halve the response being measured. A word on the inhibition: it is the change of the read-out against control, counted positive when it falls. Regarding `CC1=C(C(c2ccc([N+](=O)[O-])cc2)n2cc(COCc3ccco3)nn2)C(=O)c2ccccc2C1=O` (stereo not drawn), the IC50 on P2X purinoceptor 7 [1] is 183000 nM; on P2X purinoceptor 7 [3], 187000 nM. In addition, in series [2], the inhibition came out at 60%.

Usually AUC(0-t) stands for the area under the concentration-time curve up to a stated or last time point. A low value points to low exposure. As a reminder, the half-life is the time in which the quantity being followed falls by half. Low readings indicate fast loss, high ones slow loss. Consider `COc1ccc(Cl)c(C(=O)NCC23CC4CC(CC(C4)C2)C3)c1`, for which the results for the AUC(0-t) at 6 h in series [4] and in [7] were 186 ng·h/mL and 221 ng·h/mL, respectively. For the same molecule, the half-life in [5] was 28.2 min; in series [6] it was 9.6 min.

Take `C[C@H](CO)n1ccc2c(NC(=O)CC34CC5CC(CC(C5)C3)C4)cccc2c1=O`: the IC50 came out at 520 nM on P2X purinoceptor 7 [8] and 1 nM at P2X purinoceptor 7 [9].

On P2X purinoceptor 7 [10], `Cc1ccc(C2(CNC(=O)c3cc(CO[N+](=O)[O-])ccc3Cl)CCCCC2)cc1` gave an IC50 of 1430 nM.

With `O=C(NCc1cccc(C(F)(F)F)c1Cl)[C@@]1(O)CCC(O)c2ncccc21` (stereo partly drawn), the IC50 was less than 1000 nM at P2X purinoceptor 7 [11] and 101 nM on P2X purinoceptor 7 [12].

In the case of `CC1=C(Cn2cc(COCc3ccco3)nn2)C(=O)c2ccccc2C1=O`, the figures for the IC50 at P2X purinoceptor 7 [1] and at P2X purinoceptor 7 [3] were 184000 nM and 160000 nM, respectively. Besides, the inhibition in series [2] came out at 60%.

For the molecule `O=C(OCC1c2ncn(-c3ccccc3)c2CCN1C(=O)c1cccc(C(F)(F)F)c1Cl)c1cccc(C(F)(F)F)c1Cl` (stereo not drawn), the IC50 at P2X purinoceptor 7 [13] came to 3.1 nM.

Consider `CC1=C(C(c2ccccc2)n2cc(COCc3ccco3)nn2)C(=O)c2ccccc2C1=O` (stereo not drawn), for which the IC50 at P2X purinoceptor 7 [1] amounted to 140000 nM; on P2X purinoceptor 7 [3], 145000 nM. In addition, the inhibition in [2] came out at 60%.

For the molecule `O=C1CCC(C(=O)NCC2CCCCCCC2)c2cccnc21` (stereo not drawn), the IC50 at P2X purinoceptor 7 [11] and at P2X purinoceptor 7 [12] was more than 1000 nM throughout.

With `C[C@@H](CO)n1ccc2c(NC(=O)CC34CC5CC(CC(C5)C3)C4)cccc2c1=O`, the IC50 on P2X purinoceptor 7 [8] was determined as 107 nM; at P2X purinoceptor 7 [9] it was 0.15 nM.

In turn, `O=C(NCC1(c2ccc(CO[N+](=O)[O-])cc2)CCCCC1)c1ccccc1Cl` gave an IC50 against P2X purinoceptor 7 [10] of 390 nM.

Regarding `COc1ccc(Cl)c(C(=O)NCC23CC4CC(CC(F)(C4)C2)C3)c1`, the IC50 at P2X purinoceptor 7 [14] was 17 nM.

In turn, `Cc1ccc2c(=O)n(C(C)CO)ccc2c1NC(=O)Cc1ccc(C(F)(F)F)c(F)c1` (stereo not drawn) gave an IC50 on P2X purinoceptor 7 [15] of 9.3 nM. In series [16], this molecule had a half-life of 55.8 min.

On to `COc1ccc(Cl)c(C(=O)NCC23CC4(F)CC(F)(CC(F)(C4)C2)C3)c1`, for which the AUC(0-t) at 6 h in [4] worked out at 385 ng·h/mL; in [7], 380 ng·h/mL. Besides, the half-life in series [5] was 103 min; in series [6], 75.6 min.

Turning to `CC1=C(C(c2ccc(Cl)cc2)n2cc(COCc3ccco3)nn2)C(=O)c2ccccc2C1=O` (stereo not drawn), the IC50 on P2X purinoceptor 7 [1] is 1100 nM; on P2X purinoceptor 7 [3], 1500 nM. Moreover, the inhibition in [2] turned out to be 60%. Moreover, in the series on Mus musculus, the ED50 was 16 mg/kg.

Consider `O=C(NCC(c1scnc1C(F)F)N1CCC(Oc2cccc(Cl)n2)CC1)c1c(F)cccc1Cl` (stereo not drawn), for which the IC50 at P2X purinoceptor 7 [17] was determined as 11.1 nM; on P2X purinoceptor 7 [18], 13.4 nM.

In the case of `Cc1ccc(N2CCCC2=O)cc1Nc1nc(=O)cnn1Cc1cc(F)c(F)c(F)c1`, the IC50 against P2X purinoceptor 7 [19] stood at 5.7 nM.

Source of the values: ChEMBL document CHEMBL5360537, “From lead to clinic: A review of the structural design of P2X7R antagonists” (Eur J Med Chem, 2023).
